In PubChem BioAssay (NCI):
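Cultured in 96-well plates, cells were exposed to test compound for 48 hours across five concentrations. GI50 is the concentration that inhibits growth by half. The concentration for full growth arrest is given as TGI.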

Tests used:
Test in all cases: inhibition of tumour cell growth, NCI panel, 48 h
COLO 205 colon = system: COLO 205 colon
UACC-257 melanoma = system: UACC-257 melanoma
PC-3 prostate = system: PC-3 prostate
NCI-H522 lung = system: NCI-H522 lung
HOP-92 NSCLC = system: HOP-92 NSCLC
SW-620 colon = system: SW-620 colon
SK-MEL-28 melanoma = system: SK-MEL-28 melanoma
MDA-MB-435 = system: MDA-MB-435
NCI/ADR-RES ovarian = system: NCI/ADR-RES ovarian
A549 NSCLC = system: A549 NSCLC
SK-MEL-5 melanoma = system: SK-MEL-5 melanoma
NCI-H226 lung = system: NCI-H226 lung
LOX IMVI melanoma = system: LOX IMVI melanoma
MCF7 breast = system: MCF7 breast
HCT-15 colon = system: HCT-15 colon
SF-539 CNS = system: SF-539 CNS
T-47D breast = system: T-47D breast
SN12C renal = system: SN12C renal
MOLT-4 leukemia = system: MOLT-4 leukemia
SK-MEL-2 melanoma = system: SK-MEL-2 melanoma
K-562 leukemia = system: K-562 leukemia
CAKI-1 renal = system: CAKI-1 renal
EKVX NSCLC = system: EKVX NSCLC
HCC-2998 colon = system: HCC-2998 colon
ACHN renal = system: ACHN renal
TK-10 renal = system: TK-10 renal
SNB-19 CNS = system: SNB-19 CNS
SK-OV-3 ovarian = system: SK-OV-3 ovarian
OVCAR-5 ovarian = system: OVCAR-5 ovarian
MALME-3M melanoma = system: MALME-3M melanoma
HL-60(TB) leukemia = system: HL-60(TB) leukemia
A498 renal = system: A498 renal
UACC-62 melanoma = system: UACC-62 melanoma
SF-295 CNS = system: SF-295 CNS
UO-31 renal = system: UO-31 renal
CCRF-CEM leukemia = system: CCRF-CEM leukemia
DU-145 prostate = system: DU-145 prostate
HT29 colon = system: HT29 colon
SNB-75 CNS = system: SNB-75 CNS
NCI-H460 lung = system: NCI-H460 lung
HOP-62 NSCLC = system: HOP-62 NSCLC
HCT-116 colon = system: HCT-116 colon
786-0 renal = system: 786-0 renal
OVCAR-3 ovarian = system: OVCAR-3 ovarian
NCI-H23 lung = system: NCI-H23 lung
SF-268 CNS = system: SF-268 CNS
OVCAR-4 ovarian = system: OVCAR-4 ovarian
U251 CNS = system: U251 CNS
RXF 393 renal = system: RXF 393 renal
BT-549 breast = system: BT-549 breast
OVCAR-8 ovarian = system: OVCAR-8 ovarian
SR leukemia = system: SR leukemia
KM12 colon = system: KM12 colon
HS 578T breast = system: HS 578T breast
RPMI-8226 leukemia = system: RPMI-8226 leukemia
MDA-MB-231 breast = system: MDA-MB-231 breast
IGROV1 ovarian = system: IGROV1 ovarian
M14 melanoma = system: M14 melanoma

## CCN(CC)c1ccc2c(cc1=O)[C@@H](NC(C)=O)CCc1cc(OC)c(OC)c(OC)c1-2
COLO 205 colon
  GI50: 0.101 µM
  TGI: 0.5 µM
UACC-257 melanoma
  GI50: > 100 µM
  TGI: > 100 µM
PC-3 prostate
  GI50: 0.366 µM
  TGI: > 100 µM
NCI-H522 lung
  GI50: 0.218 µM
  TGI: 0.579 µM
HOP-92 NSCLC
  GI50: 7.11 µM
  TGI: > 100 µM
SW-620 colon
  GI50: 0.287 µM
  TGI: > 100 µM
SK-MEL-28 melanoma
  GI50: > 100 µM
  TGI: > 100 µM
MDA-MB-435
  GI50: 0.0594 µM
  TGI: 0.305 µM
NCI/ADR-RES ovarian
  GI50: 14.3 µM
  TGI: > 100 µM
A549 NSCLC
  GI50: 0.744 µM
  TGI: > 100 µM
SK-MEL-5 melanoma
  GI50: 0.302 µM
  TGI: 1.56 µM
NCI-H226 lung
  GI50: 0.409 µM
  TGI: > 100 µM
LOX IMVI melanoma
  GI50: 0.345 µM
  TGI: > 100 µM
MCF7 breast
  GI50: 0.148 µM
  TGI: > 100 µM
HCT-15 colon
  GI50: 2.64 µM
  TGI: > 100 µM
SF-539 CNS
  GI50: 0.217 µM
T-47D breast
  GI50: > 100 µM
  TGI: > 100 µM
SN12C renal
  GI50: 0.691 µM
  TGI: > 100 µM
MOLT-4 leukemia
  GI50: 0.511 µM
  TGI: > 100 µM
SK-MEL-2 melanoma
  GI50: 0.275 µM
  TGI: > 100 µM
K-562 leukemia
  GI50: 0.224 µM
  TGI: > 100 µM
CAKI-1 renal
  GI50: 4.62 µM
  TGI: > 100 µM
EKVX NSCLC
  GI50: 0.714 µM
  TGI: > 100 µM
HCC-2998 colon
  GI50: 0.347 µM
  TGI: > 100 µM
ACHN renal
  GI50: 2.62 µM
  TGI: > 100 µM
TK-10 renal
  GI50: 65.2 µM
  TGI: > 100 µM
SNB-19 CNS
  GI50: 0.409 µM
  TGI: > 100 µM
SK-OV-3 ovarian
  GI50: 0.407 µM
  TGI: > 100 µM
OVCAR-5 ovarian
  GI50: 2.45 µM
  TGI: > 100 µM
MALME-3M melanoma
  GI50: > 100 µM
  TGI: > 100 µM
HL-60(TB) leukemia
  GI50: 0.0633 µM
  TGI: 0.319 µM
A498 renal
  GI50: 0.26 µM
UACC-62 melanoma
  GI50: 0.311 µM
  TGI: > 100 µM
SF-295 CNS
  GI50: 0.277 µM
  TGI: > 100 µM
UO-31 renal
  GI50: 6.72 µM
  TGI: > 100 µM
CCRF-CEM leukemia
  GI50: 0.213 µM
  TGI: > 100 µM
DU-145 prostate
  GI50: 0.368 µM
HT29 colon
  GI50: 0.331 µM
SNB-75 CNS
  GI50: 0.321 µM
  TGI: > 100 µM
NCI-H460 lung
  GI50: 0.359 µM
  TGI: > 100 µM
HOP-62 NSCLC
  GI50: 0.563 µM
  TGI: > 100 µM
HCT-116 colon
  GI50: 0.205 µM
  TGI: > 100 µM
786-0 renal
  GI50: 0.622 µM
  TGI: > 100 µM
OVCAR-3 ovarian
  GI50: 0.25 µM
  TGI: 0.647 µM
NCI-H23 lung
  GI50: 0.578 µM
  TGI: > 100 µM
SF-268 CNS
  GI50: 0.511 µM
  TGI: > 100 µM
OVCAR-4 ovarian
  GI50: 3.32 µM
  TGI: > 100 µM
U251 CNS
  GI50: 0.407 µM
  TGI: > 100 µM
RXF 393 renal
  GI50: 0.381 µM
  TGI: > 100 µM
BT-549 breast
  GI50: 0.245 µM
  TGI: 7.28 µM
OVCAR-8 ovarian
  GI50: 0.467 µM
  TGI: > 100 µM
SR leukemia
  GI50: 0.0529 µM
  TGI: > 100 µM
KM12 colon
  GI50: 0.282 µM
  TGI: > 100 µM
HS 578T breast
  GI50: 0.648 µM
  TGI: > 100 µM
RPMI-8226 leukemia
  GI50: 0.288 µM
  TGI: > 100 µM
MDA-MB-231 breast
  GI50: 0.552 µM
  TGI: > 100 µM
IGROV1 ovarian
  GI50: 0.51 µM
  TGI: > 100 µM

## [N-]=[N+]=NCCCn1c2c(c3ccccc3c1=O)C(=O)c1cc(Br)ccc1-2
COLO 205 colon
  GI50: > 100 µM
  TGI: > 100 µM
UACC-257 melanoma
  GI50: > 100 µM
  TGI: > 100 µM
PC-3 prostate
  GI50: > 100 µM
  TGI: > 100 µM
NCI-H522 lung
  GI50: > 100 µM
  TGI: > 100 µM
HOP-92 NSCLC
  GI50: 9.42 µM
  TGI: 92.4 µM
SW-620 colon
  GI50: > 100 µM
  TGI: > 100 µM
SK-MEL-28 melanoma
  GI50: > 100 µM
  TGI: > 100 µM
MDA-MB-435
  GI50: > 100 µM
  TGI: > 100 µM
NCI/ADR-RES ovarian
  GI50: > 100 µM
  TGI: > 100 µM
A549 NSCLC
  GI50: > 100 µM
  TGI: > 100 µM
SK-MEL-5 melanoma
  GI50: > 100 µM
  TGI: > 100 µM
NCI-H226 lung
  GI50: > 100 µM
  TGI: > 100 µM
LOX IMVI melanoma
  GI50: > 100 µM
  TGI: > 100 µM
MCF7 breast
  GI50: 39.8 µM
  TGI: > 100 µM
HCT-15 colon
  GI50: > 100 µM
  TGI: > 100 µM
SF-539 CNS
  GI50: > 100 µM
  TGI: > 100 µM
T-47D breast
  GI50: > 100 µM
  TGI: > 100 µM
SN12C renal
  GI50: > 100 µM
  TGI: > 100 µM
MOLT-4 leukemia
  GI50: 28.9 µM
  TGI: > 100 µM
SK-MEL-2 melanoma
  GI50: > 100 µM
  TGI: > 100 µM
CAKI-1 renal
  GI50: > 100 µM
  TGI: > 100 µM
EKVX NSCLC
  GI50: > 100 µM
  TGI: > 100 µM
HCC-2998 colon
  GI50: > 100 µM
  TGI: > 100 µM
ACHN renal
  GI50: > 100 µM
  TGI: > 100 µM
TK-10 renal
  GI50: > 100 µM
  TGI: > 100 µM
SNB-19 CNS
  GI50: > 100 µM
  TGI: > 100 µM
SK-OV-3 ovarian
  GI50: > 100 µM
  TGI: > 100 µM
OVCAR-5 ovarian
  GI50: > 100 µM
  TGI: > 100 µM
MALME-3M melanoma
  GI50: > 100 µM
  TGI: > 100 µM
HL-60(TB) leukemia
  GI50: > 100 µM
  TGI: > 100 µM
A498 renal
  GI50: > 100 µM
  TGI: > 100 µM
UACC-62 melanoma
  GI50: > 100 µM
  TGI: > 100 µM
SF-295 CNS
  GI50: > 100 µM
  TGI: > 100 µM
UO-31 renal
  GI50: > 100 µM
  TGI: > 100 µM
CCRF-CEM leukemia
  GI50: 50.8 µM
  TGI: > 100 µM
DU-145 prostate
  GI50: > 100 µM
  TGI: > 100 µM
HT29 colon
  GI50: > 100 µM
  TGI: > 100 µM
M14 melanoma
  GI50: > 100 µM
  TGI: > 100 µM
SNB-75 CNS
  GI50: 45.1 µM
  TGI: > 100 µM
NCI-H460 lung
  GI50: 46.8 µM
  TGI: > 100 µM
HOP-62 NSCLC
  GI50: > 100 µM
  TGI: > 100 µM
HCT-116 colon
  GI50: > 100 µM
  TGI: > 100 µM
786-0 renal
  GI50: > 100 µM
  TGI: > 100 µM
OVCAR-3 ovarian
  GI50: > 100 µM
  TGI: > 100 µM
NCI-H23 lung
  GI50: > 100 µM
  TGI: > 100 µM
SF-268 CNS
  GI50: > 100 µM
  TGI: > 100 µM
OVCAR-4 ovarian
  GI50: > 100 µM
  TGI: > 100 µM
U251 CNS
  GI50: > 100 µM
  TGI: > 100 µM
RXF 393 renal
  GI50: > 100 µM
  TGI: > 100 µM
BT-549 breast
  GI50: > 100 µM
  TGI: > 100 µM
OVCAR-8 ovarian
  GI50: > 100 µM
  TGI: > 100 µM
SR leukemia
  GI50: 9.82 µM
  TGI: 51.7 µM
KM12 colon
  GI50: > 100 µM
  TGI: > 100 µM
HS 578T breast
  GI50: > 100 µM
  TGI: > 100 µM
RPMI-8226 leukemia
  GI50: > 100 µM
  TGI: > 100 µM
MDA-MB-231 breast
  GI50: > 100 µM
  TGI: > 100 µM
IGROV1 ovarian
  GI50: > 100 µM
  TGI: > 100 µM
